Assays:
Test in all cases: relative viability (nuclei count vs DMSO), 5 days (fraction); higher = more cells survive
[1] = compound: COc1cc(-c2nn([C@H]3CC[C@H](N4CCN(C(C)=O)CC4)CC3)c3ncnc(N)c23)ccc1NC(=O)c1cc2ccccc2n1C + CC(=O)c1c(C)c2cnc(Nc3ccc(N4CCNCC4)cn3)nc2n(C2CCCC2)c1=O [Palbociclib] (partner 0.5 µM)
Method in brief: (§1)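 Five library-drug doses in √10 steps were combined with a fixed anchor-drug dose, or a single drug was given alone, by pin tool to lung cancer cell lines in 1536-well plates the day after seeding. Nuclei were stained and counted after 5 days. Relative viability is the nuclei count in treated wells over that in vehicle wells, taken as the median of duplicate plates.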

[2] = compound: COc1cc(-c2nn([C@H]3CC[C@H](N4CCN(C(C)=O)CC4)CC3)c3ncnc(N)c23)ccc1NC(=O)c1cc2ccccc2n1C + O=C(c1cc(Cc2n[nH]c(=O)c3ccccc23)ccc1F)N1CCN(C(=O)C2CC2)CC1 [Olaparib] (partner 8 µM)
Method in brief: as §1

[3] = compound: COc1cc(-c2nn([C@H]3CC[C@H](N4CCN(C(C)=O)CC4)CC3)c3ncnc(N)c23)ccc1NC(=O)c1cc2ccccc2n1C + COc1cccc2cc(-c3nc([C@H]4CC[C@H](C(=O)O)CC4)n4ncnc(N)c34)[nH]c12 [OSI-027] (partner 0.5 µM)
Method in brief: as §1

[4] = compound: COc1cc(-c2nn([C@H]3CC[C@H](N4CCN(C(C)=O)CC4)CC3)c3ncnc(N)c23)ccc1NC(=O)c1cc2ccccc2n1C + CS(=O)(=O)N1CCN(Cc2cc3nc(-c4cccc5[nH]ncc45)nc(N4CCOCC4)c3s2)CC1 [Pictilisib] (partner 1 µM)
Method in brief: as §1

[5] = compound: CO[C@@H]1[C@H](N(C)C(=O)c2ccccc2)C[C@H]2O[C@]1(C)n1c3ccccc3c3c4c(c5c6ccccc6n2c5c31)C(=O)NC4 [Midostaurin] + COc1cc2c(Oc3ccc(NC(=O)C4(C(=O)Nc5ccc(F)cc5)CC4)cc3F)ccnc2cc1OCCCN1CCOCC1 [Foretinib] (partner 0.25 µM)
Method in brief: as §1

Row | Cell Line | relative viability ([1]; first compound 0.0128 µM) | relative viability ([1]; first compound 0.04048 µM) | relative viability ([1]; first compound 0.128 µM) | relative viability ([1]; first compound 1.28 µM) | relative viability ([2]; first compound 0.0128 µM) | relative viability ([2]; first compound 0.04048 µM) | relative viability ([2]; first compound 0.128 µM) | relative viability ([2]; first compound 1.28 µM) | relative viability ([3]; first compound 0.0128 µM) | relative viability ([3]; first compound 0.04048 µM) | relative viability ([3]; first compound 0.128 µM) | relative viability ([3]; first compound 1.28 µM) | relative viability ([4]; first compound 0.0128 µM) | relative viability ([4]; first compound 0.04048 µM) | relative viability ([4]; first compound 0.128 µM) | relative viability ([4]; first compound 1.28 µM) | relative viability ([5]; first compound 0.01 µM) | relative viability ([5]; first compound 0.03162 µM) | relative viability ([5]; first compound 0.1 µM) | relative viability ([5]; first compound 0.3162 µM)
1 | HCC-15 | 0.555 | 0.663 | 0.839 | 0.705 | 0.745 | 0.77 | 0.719 | 0.651 | 0.832 | 0.463 | 0.616 | 0.586 | 0.854 | 0.369 | 0.657 | 0.647 | 1.08 | 0.856 | 1.04 | 1.05
2 | HCC-44 | 1.04 | 0.975 | 0.972 | 1.29 | 1.1 | 1.09 | 0.916 | 1.27 | 0.477 | 0.528 | 0.549 | 0.484 | 0.675 | 0.67 | 0.542 | 0.542 | – | – | – | –
3 | HCC-78 | 0.479 | 0.433 | 0.465 | 0.381 | 0.938 | 0.933 | 0.768 | 0.456 | 0.341 | 0.371 | 0.356 | 0.26 | 0.23 | 0.181 | 0.21 | 0.196 | 0.65 | 0.532 | 0.541 | 0.555
4 | HCC-366 | 0.485 | 0.431 | 0.403 | 0.256 | 0.394 | 0.328 | 0.361 | 0.252 | 0.803 | 0.347 | 0.882 | 0.772 | 0.09 | 0.129 | 0.161 | 0.141 | 0.932 | 0.957 | 0.81 | 0.75
5 | HCC-827 | 0.492 | 0.455 | 0.484 | 0.218 | 0.657 | 0.572 | 0.574 | 0.48 | 0.817 | 0.658 | 0.666 | 0.744 | 1.1 | 1.22 | 0.902 | 0.783 | 0.98 | 1.04 | 1.01 | 1.05
6 | HOP-62 | 0.503 | 0.468 | 0.411 | 0.432 | 0.657 | 0.533 | 0.366 | 0.478 | 0.86 | 0.734 | 0.817 | 0.707 | 0.831 | 0.285 | 0.738 | 0.604 | 1.14 | 1.04 | 1.16 | 1.2
7 | IA-LM | – | – | – | – | 0.871 | 0.877 | 1.03 | 0.961 | – | – | – | – | 0.345 | 0.443 | 0.324 | 0.334 | 1.15 | 0.86 | 1.23 | 1.05
8 | LC-2-ad | 0.543 | 0.508 | 0.502 | 0.511 | 0.783 | 0.835 | 0.658 | 0.8 | 0.932 | 0.776 | 0.864 | 0.691 | 0.606 | 0.009 | 0.455 | 0.311 | 0.919 | 0.897 | 0.914 | 1.04
9 | LCLC-97TM1 | 0.22 | 0.194 | 0.241 | 0.191 | 0.455 | 0.501 | 0.326 | 0.441 | 0.596 | 0.243 | 0.489 | 0.586 | 0.229 | 0.107 | 0.227 | 0.281 | 1 | 0.937 | 0.817 | 0.913
10 | NCI-H522 | 1.08 | 0.864 | 0.822 | 0.778 | 0.558 | 0.593 | 0.617 | 0.522 | 0.8 | 0.725 | 0.812 | 0.651 | – | – | – | – | – | – | – | –
11 | NCI-H596 | – | – | – | – | 0.722 | 0.787 | 0.681 | 0.593 | 0.681 | 0.526 | 0.641 | 0.441 | 0.412 | 0.451 | 0.356 | 0.44 | 0.816 | 0.969 | 0.723 | 0.896
12 | NCI-H1299 | – | – | – | – | 0.978 | 1.01 | 0.914 | 1.01 | – | – | – | – | 0.681 | 0.806 | 0.668 | 0.385 | 1.07 | 1.04 | 1.05 | 0.976
13 | NCI-H1563 | – | – | – | – | – | – | – | – | 0.711 | 0.86 | 0.848 | 0.59 | 0.682 | 0.641 | 0.656 | 0.606 | 0.985 | 0.976 | 0.847 | 0.785
14 | NCI-H1623 | – | – | – | – | – | – | – | – | 0.422 | 0.342 | 0.399 | 0.37 | – | – | – | – | 0.995 | 0.876 | 0.949 | 0.941
15 | NCI-H1648 | 0.263 | 0.275 | 0.242 | 0.333 | 0.94 | 0.928 | 1.23 | 0.515 | 0.27 | 0.257 | 0.274 | 0.276 | – | – | – | – | – | – | – | –
16 | NCI-H1703 | – | – | – | – | 0.386 | 0.283 | 0.386 | 0.184 | – | – | – | – | 0.235 | 0.26 | 0.222 | 0.163 | 0.351 | 0.316 | 0.292 | 0.325
17 | NCI-H1792 | 0.663 | 0.626 | 0.657 | 0.636 | 0.481 | 0.532 | 0.416 | 0.416 | 0.736 | 0.523 | 0.689 | 0.558 | 0.237 | 0.191 | 0.306 | 0.354 | – | – | – | –
18 | NCI-H2342 | 0.503 | 0.487 | 0.517 | 0.514 | 0.511 | 0.423 | 0.388 | 0.371 | 0.521 | 0.706 | 0.644 | 0.493 | – | – | – | – | 1.03 | 0.933 | 0.961 | 0.92
19 | SW 900 | 0.564 | 0.584 | 0.538 | 0.353 | 1 | 1.17 | 0.845 | 0.574 | 0.536 | 0.588 | 0.497 | 0.356 | – | – | – | – | 0.876 | 0.746 | 0.822 | 0.763
